Paper PMC8034185, “The rumen eukaryotome is a source of novel antimicrobial peptides with therapeutic potential” (BMC Microbiology, 2021)
Ends that are not written are not given here.

Columns and labels:
sheep erythrocytes = assay: Haemolytic activity; format: cell-based; conditions: for haemolysis of sheep erythrocytes: 1 h; for Haemolytic activity (Minus PBS/average positive*100): sheep erythrocytes
Method: (§1) Fresh human red blood cells (RBC) (Cambridge Bioscience, UK) and defibrinated sheep erythrocytes (Oxoid Ltd. Hampshire, UK) were washed 3 times with PBS, centrifuged for 5 min at 500 rpm between each wash and resuspended to 4% (v/v) in PBS. […] The percentage of haemolysis was calculated according to the equation: (A450 peptide solution − A450 PBS)/ (A450 0.1% Triton X-100 − A450 PBS) × 100. The therapeutic index (T.I.) was calculated as the ratio of the minimum haemolytic concentration ((MHC)- causing 5% haemolysis to human erythrocytes) to the minimum inhibitory concentration (MICGM+) [46]. The MICGM+ was the minimum inhibitory concentration of the peptide against Gram-positive bacterial strains after the geometric mean was calculated.

S. aureus strains = format: cell-based, Staphylococcus aureus
[1] = test system: drug resistant A. baumannii isolates; format: cell-based, Acinetobacter baumannii
Method: MICs against a range of clinically important Gram-positive and Gram-negative bacteria strains including methicillin-sensitive Staphylococcus aureus (MSSA) RN4220 epidemic methicillin-resistant S. aureus-15 (EMRSA-15), methicillin-resistant S. aureus USA300 (MRSA USA300), Bacillus cereus, Enterococcus faecalis JH2–2, Escherichia coli K12, Salmonella enterica serovar Typhimurium SL1344, P. aeruginosa PAO1, and hospital isolates of Acinetobacter baummannii were determined in quadruplicate by a modified microdilution broth method [64] with a final bacterial inoculum concentration of 5 × 10^5 CFU/mL utilised as the test organisms. Cation-adjusted Mueller Hinton (MH) broth was innoclated overnight with a single colony of the tested microorganisms, subsequently grown for 16–24 h with shaking at 225 rpm, and further diluted in the same broth to a final concentration of 5 × 10^5 CFU/mL. The bacterial suspension was added to sterile U-bottomed 96-well plates, and the peptides and control antibiotics to be tested were dissolved in sterile distilled water and serially diluted in the wells. The MICs were recorded as the lowest peptide concentration that inhibited growth after incubation for 18 h [65]. […]

human red blood cells = assay: Haemolytic activity; format: cell-based; conditions: human RBC, CTAB control
Method: as §1

Compound	haemolysis of sheep erythrocytes (sheep erythrocytes; 16 μg/mL) [%]	haemolysis of sheep erythrocytes (sheep erythrocytes; 24 μg/mL) [%]	Haemolytic activity (Minus PBS/average positive*100) (sheep erythrocytes; 1x MIC, mean)	Haemolytic activity (Minus PBS/average positive*100) (sheep erythrocytes; 1x MIC, replicate 1)	Haemolytic activity (Minus PBS/average positive*100) (sheep erythrocytes; 1x MIC, replicate 2)	Haemolytic activity (Minus PBS/average positive*100) (sheep erythrocytes; 1x MIC, replicate 3)	Haemolytic activity (Minus PBS/average positive*100) (sheep erythrocytes; 1x MIC, replicate 4)	Haemolytic activity (Minus PBS/average positive*100) (sheep erythrocytes; 2x MIC, mean)	Haemolytic activity (Minus PBS/average positive*100) (sheep erythrocytes; 2x MIC, replicate 1)	Haemolytic activity (Minus PBS/average positive*100) (sheep erythrocytes; 2x MIC, replicate 2)	Haemolytic activity (Minus PBS/average positive*100) (sheep erythrocytes; 2x MIC, replicate 3)	Haemolytic activity (Minus PBS/average positive*100) (sheep erythrocytes; 2x MIC, replicate 4)	Haemolytic activity (Minus PBS/average positive*100) (sheep erythrocytes; 3x MIC, mean)	Haemolytic activity (Minus PBS/average positive*100) (sheep erythrocytes; 3x MIC, replicate 1)	Haemolytic activity (Minus PBS/average positive*100) (sheep erythrocytes; 3x MIC, replicate 2)	Haemolytic activity (Minus PBS/average positive*100) (sheep erythrocytes; 3x MIC, replicate 3)	Haemolytic activity (Minus PBS/average positive*100) (sheep erythrocytes; 3x MIC, replicate 4)	MIC against S. aureus strains (S. aureus strains) [µg/mL]	MIC against drug resistant A. baumannii isolates [1] [µg/mL]	Haemolytic (human red blood cells)
GIVAWFWRLAR [Lubelisin]	~20	~30	12.8836	12.4097	12.5903	11.8682	14.6661	18.8177	17.1029	22.6986	19.9007	15.5686	33.7319	34.2509	33.1679	33.7094	33.7996	8	128	
CCCCCCCCCCCCCCCC[N+](C)(C)C.[Br-] [CTAB]																				100
